The target in experiment [1] is T1, TNFα-induced NF-κB signal transduction pathway (TNFR1 signaling) in THP-1 cells (Homo sapiens, UniProt P19438).
T1 sequence (P19438 30-455): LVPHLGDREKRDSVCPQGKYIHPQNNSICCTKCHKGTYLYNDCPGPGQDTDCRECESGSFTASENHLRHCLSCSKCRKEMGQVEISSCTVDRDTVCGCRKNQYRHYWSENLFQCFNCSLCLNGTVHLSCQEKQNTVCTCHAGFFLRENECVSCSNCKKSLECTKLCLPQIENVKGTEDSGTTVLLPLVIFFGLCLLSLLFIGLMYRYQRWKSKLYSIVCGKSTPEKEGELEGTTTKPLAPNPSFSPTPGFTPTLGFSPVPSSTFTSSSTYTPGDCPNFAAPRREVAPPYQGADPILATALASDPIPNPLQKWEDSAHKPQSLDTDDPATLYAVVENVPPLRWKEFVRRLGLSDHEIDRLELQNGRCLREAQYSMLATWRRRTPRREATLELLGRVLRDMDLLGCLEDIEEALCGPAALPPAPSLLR
Put plainly: THP-1 Lucia NF-κB reporter cell assay, inhibition of TNFα-induced NF-κB signaling. The experiment is classed as cell-based. The conditions noted are these: THP-1 NF-κB Lucia reporter cells, 10 ng/mL TNFα, 16-18 h, secreted luciferase; read-out: THP-1 IC50. The procedure, abridged:
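Read-out: secreted Lucia luciferase luminescence (QUANTI-Luc) from supernatant after 16-18 h, 37 °C, 10 ng/mL rhTNFα. Peptide pretreatment 1 h at 37 °C; 20,000 cells/well, selection antibiotics omitted. IC50 via 4-parameter logistic model against min/max controls.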

Experiment [2] deals with T2, human soluble TNFR1 (sTNFR1) (Homo sapiens, UniProt P19438).
T2 construct: made in house; host or cells: Sf21 (baculovirus)
T2 sequence (P19438 with tags, fused parts or gaps): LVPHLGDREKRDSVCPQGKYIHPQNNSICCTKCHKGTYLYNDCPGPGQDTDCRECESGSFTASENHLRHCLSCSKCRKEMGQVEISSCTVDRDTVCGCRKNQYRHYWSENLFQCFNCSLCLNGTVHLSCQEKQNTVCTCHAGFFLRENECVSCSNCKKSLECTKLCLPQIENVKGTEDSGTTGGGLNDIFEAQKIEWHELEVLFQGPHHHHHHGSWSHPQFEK
Put plainly: Human sTNFR1-peptide displacement assay (LanthaScreen Eu TR-FRET binding assay). A digest of the protocol:
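Readout is the 665/615 nm TR-FRET ratio (Eu anti-His donor, streptavidin-Alexa647 acceptor), normalized to DMSO and saturating displacer, fit by Morrison-based five-parameter logistic for Kd^app. His-tagged sTNFR1 (1-211) prebound to 100 nM biotinylated peptide SEQ ID NO.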
On the technique in general: In TR-FRET formats the signal depends on donor and acceptor labels being close together.

Like-named read-outs stand apart in the source and are kept apart here. Numbered stars: 1 amine (or outer) side, 2 acyl side, 3 side chain; on linkers, the order of the positions; unused ones are H or OH. Bridge positions count the residues as written; N and C are the ends. Square brackets hold non-standard residues; d marks the D form. Peptide text beside a SMILES is read from it. * marks the point of attachment. Trp(7-aza,1-CH2COOH) = N[C@@H](Cc1cn(CC(=O)O)c2ncccc12)C(=O)O; Trp(βS-Me,7-OMe) = COc1cccc2c([C@H](C)[C@H](N)C(=O)O)c[nH]c12; X49 = C[N+](C)(C)CC(=O)N[C@H]1C[C@H](C(=O)[*:2])N([*:1])C1; dPro(trans-4-NMe3+) = C[N+](C)(C)[C@@H]1CN[C@@H](C(=O)O)C1; Phe(4-SO2NH2) = N[C@@H](Cc1ccc(S(N)(=O)=O)cc1)C(=O)O; X54 = O=C(O)c1c(F)cc(C[C@H](N[*:1])C(=O)[*:2])cc1F; Trp(7-CN) = N#Cc1cccc2c(C[C@H](N)C(=O)O)c[nH]c12; Trp(7-Cl) = N[C@@H](Cc1c[nH]c2c(Cl)cccc12)C(=O)O; X20 = O=C1NCc2ccc(C[C@H](N[*:1])C(=O)[*:2])cc21; X27 = O=C(O)c1ccc(C[C@H](N[*:1])C(=O)[*:2])cc1F; Phe(4-CONH2) = NC(=O)c1ccc(C[C@H](N)C(=O)O)cc1; Phe(4-COOH) = N[C@@H](Cc1ccc(C(=O)O)cc1)C(=O)O; Trp(7-aza) = N[C@@H](Cc1c[nH]c2ncccc12)C(=O)O; Pip(5R-OH) = O=C(O)[C@@H]1CC[C@@H](O)CN1; X1 = O=C([C@@H]1CC[C@H](N[*:1])C1)[*:2]; Pip(4-aza) = O=C(O)[C@@H]1CNCCN1; 4Pal = N[C@@H](Cc1ccncc1)C(=O)O; NMeE = CN[C@@H](CCC(=O)O)C(=O)O; dHyp = O=C(O)[C@H]1C[C@H](O)CN1; αMeS = C[C@](N)(CO)C(=O)O; Carboxymethyl = O=C(O)C*; Nle = CCCC[C@H](N)C(=O)O; CF3 = FC(F)(F)*; Sar = CNCC(=O)O

Turning to `CCCC[C@@H]1NC(=O)[C@@H]2CC[C@@H](C2)NC(=O)[C@H]([C@@H](C)c2c[nH]c3c(OC)cccc23)NC(=O)CN(C)C(=O)[C@H](Cc2cc(F)c(C(=O)O)c(F)c2)NC(=O)[C@H](Cc2ccc(C(N)=O)cc2)NC(=O)[C@](C)(CO)NC(=O)[C@H](Cc2c[nH]c3c(C#N)cccc23)NC(=O)[C@H](Cc2cc(F)c(C(=O)O)c(F)c2)NC(=O)[C@H](CC(N)=O)NC(=O)[C@H]2C[C@H](NC(=O)C[N+](C)(C)C)CN2C(=O)[C@H](Cc2c[nH]c3ncccc23)NC(=O)[C@@H]2CC[C@@H](O)CN2C(=O)[C@H](Cc2ccncc2)NC1=O` [SEQ ID NO. 193] (cyclo([4Pal][Pip(5R-OH)][Trp(7-aza)][X49]N[X54][Trp(7-CN)][αMeS][Phe(4-CONH2)][X54][Sar][Trp(βS-Me,7-OMe)][X1][Nle])), the IC50 in experiment [1] was determined as 1 nM. The Kd in experiment [2] is 0.15 nM.

Consider `CCCC[C@@H]1NC(=O)[C@@H]2CC[C@@H](C2)NC(=O)[C@H]([C@@H](C)c2c[nH]c3c(OC)cccc23)NC(=O)CN(C)C(=O)[C@H](Cc2ccc(C(=O)O)c(F)c2)NC(=O)[C@H](Cc2ccc(C(N)=O)cc2)NC(=O)[C@](C)(CO)NC(=O)[C@H](Cc2c[nH]c3c(C#N)cccc23)NC(=O)[C@H](Cc2ccc(C(=O)O)cc2)NC(=O)[C@H](CC(N)=O)NC(=O)[C@H]2C[C@H](NC(=O)C[N+](C)(C)C)CN2C(=O)[C@H](Cc2c[nH]c3ncccc23)NC(=O)[C@@H]2CC[C@@H](O)CN2C(=O)[C@H](Cc2ccncc2)NC1=O` [SEQ ID NO. 113] (cyclo([4Pal][Pip(5R-OH)][Trp(7-aza)][X49]N[Phe(4-COOH)][Trp(7-CN)][αMeS][Phe(4-CONH2)][X27][Sar][Trp(βS-Me,7-OMe)][X1][Nle])), for which the IC50 in experiment [1] was found to be 0.5 nM. The compound also showed a Kd in experiment [2] of 0.09 nM.

As for `CCCC[C@@H]1NC(=O)[C@@H]2CC[C@@H](C2)NC(=O)[C@H]([C@@H](C)c2c[nH]c3c(OC)cccc23)NC(=O)CN(C)C(=O)[C@H](Cc2ccc(OCC(=O)O)cc2)NC(=O)[C@H](Cc2ccc(S(N)(=O)=O)cc2)NC(=O)[C@](C)(CO)NC(=O)[C@H](Cc2c[nH]c3c(C#N)cccc23)NC(=O)[C@H](Cc2ccc(OCC(=O)O)cc2)NC(=O)[C@H](CC(N)=O)NC(=O)[C@H]2C[C@H]([N+](C)(C)C)CN2C(=O)[C@H](Cc2c[nH]c3ncccc23)NC(=O)[C@@H]2CC[C@@H](O)CN2C(=O)[C@H](Cc2ccncc2)NC1=O` [SEQ ID NO. 257] (cyclo([4Pal][Pip(5R-OH)][Trp(7-aza)][dPro(trans-4-NMe3+)]NY(Carboxymethyl)[Trp(7-CN)][αMeS][Phe(4-SO2NH2)]Y(Carboxymethyl)[Sar][Trp(βS-Me,7-OMe)][X1][Nle])), the IC50 in experiment [1] turned out to be 0.4 nM. Besides, in experiment [2] (displacement of biotinylated peptide SEQ ID NO. 1 from sTNFR1, 20 point titration, 5-parameter fit based on Morrison equation (tight binding), read-out: TR-FRET Kd^app), the Kd was 0.08 nM.

Take `CCCC[C@@H]1NC(=O)[C@@H]2CC[C@@H](C2)NC(=O)[C@H]([C@@H](C)c2c[nH]c3c(OC)cccc23)NC(=O)CN(C)C(=O)[C@H](Cc2ccc(C(N)=O)cc2)NC(=O)[C@H](Cc2ccc(C(N)=O)cc2)NC(=O)[C@](C)(CO)NC(=O)[C@H](Cc2c[nH]c3c(C#N)cccc23)NC(=O)[C@H](Cc2ccc3c(c2)C(=O)NC3)NC(=O)[C@H](CC(N)=O)NC(=O)[C@H]2C[C@H](OCC(=O)O)CN2C(=O)[C@H](Cc2cn(CC(=O)O)c3ncccc23)NC(=O)[C@@H]2CC[C@@H](O)CN2C(=O)[C@H](Cc2ccncc2)NC1=O` [SEQ ID NO. 156] (cyclo([4Pal][Pip(5R-OH)][Trp(7-aza,1-CH2COOH)][dHyp](Carboxymethyl)N[X20][Trp(7-CN)][αMeS][Phe(4-CONH2)][Phe(4-CONH2)][Sar][Trp(βS-Me,7-OMe)][X1][Nle])): in experiment [1], the IC50 worked out at 0.8 nM. In addition, the Kd in experiment [2] came to 0.12 nM.

On to `CCCC[C@@H]1NC(=O)CSC[C@@H](C(N)=O)NC(=O)[C@H]([C@@H](C)c2c[nH]c3c(OC)cccc23)NC(=O)CN(C)C(=O)[C@H](Cc2ccc(OC(F)(F)F)cc2)NC(=O)[C@H](Cc2ccc(C(=O)O)cc2)NC(=O)[C@](C)(CO)NC(=O)[C@H](Cc2c[nH]c3c(Cl)cccc23)NC(=O)[C@H](Cc2ccncc2)NC(=O)[C@H](CC(N)=O)NC(=O)[C@H](CCC(=O)O)N(C)C(=O)[C@H](Cc2c[nH]c3ncccc23)NC(=O)[C@@H]2CNCCN2C(=O)[C@H](Cc2ccncc2)NC1=O` [SEQ ID NO. 158] ({CH2CO}-[Nle][4Pal][Pip(4-aza)][Trp(7-aza)][NMeE]N[4Pal][Trp(7-Cl)][αMeS][Phe(4-COOH)]Y(CF3)[Sar][Trp(βS-Me,7-OMe)]C-NH2; thioether N-14), for which the IC50 is 5.3 nM in experiment [1] and 1.79 nM in experiment [2].

The term IC50 denotes the concentration needed to halve the response being measured.

Source of the values: patent US20240287138A1, “CYCLIC PEPTIDES FOR INHIBITING TNF RECEPTOR 1 ACTIVITY” (Merck Sharp & Dohme LLC, priority 2023, published 2024).
